Measured values from patent US6060451A, “Thrombin inhibitors based on the amino acid sequence of hirudin” (The National Research Council of Canada, priority 1995, dated 2000).
“And” between values parts separate entries of the source, which are not always exact repeats. Identical values can stand only once. Non-standard residues stand in square brackets, D forms with d.

Tests used:
platelets = test: Thrombin-induced platelet aggregation; assay type: cell-based
Protocol: The inhibitory activity of some of the peptides of the present invention toward thrombin is reflected by their ability to inhibit thrombin-mediatedplatelet aggregation as shown in FIG. 2. Platelet rich plasma containing variable concentrations of P79 is treated with thrombin. Platelet aggregation, reflected by increased light transmittance is measured on a Bio Data PAP-4 aggregometer.

thrombin [1] = biological target: T1, thrombin (Homo sapiens, UniProt P00734); test: Thrombin time in buffer containing fibrinogen (dTT); assay type: biochemical; settings: read-out: IC50 dTT (concentration required to double thrombin time)
Excerpt: *Concentration of compound required to double thrombin time in buffer

thrombin [2] = biological target: T1, thrombin; test: Antithrombin activity in vitro, Ki (Table III); assay type: biochemical; settings: first test where two are given; means for 3-5 observations
Protocol: The reactions were initiated by addition of the substrate dissolved in 0.1 M Tris-HCl buffer, pH 7.8 to a preincubated solution of enzyme (0.4 or 0.04 nM) and variable concentrations of inhibitor dissolved in the same buffer. Initial velocities were recorded and Ki values were determined graphically by weighted linear regression of Dixon plots in the case of competitive inhibition, or by the method of Baici (Baici, 1981) for hyperbolic inhibition. Fluorogenic assays were conducted using the same conditions and instrument as above operating in the fluorescence mode in the Ratio (λex=383 nm, λem=455 nm). Fluorescence intensities were calibrated with 7-amino-4-methyl coumarin solution of known concentration. The specificity of the synthetic peptides of the present invention for human α-thrombin may also be determined by comparing their relative inhibitory activities towards both human α-thrombin and bovine α-thrombin and trypsin by comparing Ki values obtained in the amidolytic assay of thrombin activity.

human plasma clotting = test: Human plasma clotting time; assay type: biochemical; settings: read-out: IC50 plasma clotting time (concentration required to inhibit human plasma clotting time by 50%)
Protocol: Thus, for the determination of prothrombin time, 50 μl of reconstituted citrated normal human plasma (Sigma, St-Louis, Mo.) is mixed with 50 μl of thromboplastin solution at 37° C. in a 400 μl cuvette. […] The clotting time is recorded following recalcification with 100 μl of 25 mM CaCl2. The clotting time in the absence of inhibitor was between 19-22 sec.
The same procedure is adopted for the determination of activated partial thromboplastin time except that reconstituted plasma is activated for 3 minutes with cephalin (Sigma, St-Louis, Mo.).
**Concentration of compound required to inhibit human plasma clotting tim

[3] = tested on: carotid artery thrombosis; test: Ferric chloride injury-induced thrombosis model in carotid artery; settings: rat carotid artery, FeCl3 injury; for Dose to double patency time: control patency time 19 ± 1 min
Protocol: Species: Rat, male, Sprague-Dawley.
Animals were laid on a heating pad which was maintained at 37° C. The carotid artery was approached through a midline cervical incision. Carefully blunt dissection was used to expose and isolate the vessel from the carotid sheath. […] The vessel temperature was monitored for 60 minutes after application of FeCl3. […] The site of the experiment was covered with aluminum foil in order to protect the FeCl3 from degradation by light.
All the samples were kept on ice and centrifuged as soon as possible at 2000 Rpm for 10 min., 4° C. The plasma was analyzed in duplicate for activated partial thromboplastin time on a haemostasis analyzer (STAGO ST4™).
From a group of four animals, two arteries were stored at -80° C. for further analysis. The others were observed under a light microscope at 40× (Leica™) for quantification of the occlusion (complete, partial, no occlusion).
In some studies, the animal was receiving the compound by i.v. infusion instead of a bolus. In this case, the jugulars and femoral veins were cannulated with Sylastic tubing (I.D. 0.025IN). This left jugular was used for blood sampling and the right one for the infusion line. The compound was infused 30 minutes before injury and then for an other 30 minutes post-injury. Blood samples were taken at time 0, 30 and 60 minutes for APTT test and thrombin test (1 ml of blood/90 ul of citrated buffer).

[4] = tested on: venous thrombosis in vena cava; test: Venous thrombosis model (balloon catheter induced-injury and stasis in vena cava); assay type: in vivo, rat; settings: rats; for Minimum Bolus dose needed to achieve patency: i.v. bolus
Protocol: Rats ranging in weight from 350 g-450 g were anaesthetized with urethane [50%] at 1500 mg/kg IP. The abdomen and neck were shaved and prepared for surgery.
An incision was made from the base of the sternum to approximately 10-20 mm up from the penile sheath. Another incision was made across the end of the incision (90 degree) to create a flap to be hemostat open. […] Two sutures were loosely looped around the vein(1) and the vein and artery(2), just posterior to the renal veins and arteries. All other branches coming off dorsally from the vena cava were ligated as well as any other veins which may branch of this vein (approximately 4-6 depending on rat). Two more sutures were looped around the vein(1) and artery and vein(2) at the bifurcation of the femoral vein and artery. The right jugular vein was isolated, for later injection of compound.
An incision in the upper interior leg was made and the femoral vein and artery were exposed. The femoral vein was isolated and two sutures were looped around it. One suture was ligated distally, and the other one was pulled tight (proximal) to stop blood flow through the vessel. A very small incision was made into the vein and a 2F fogarty catheter was inserted. The catheter was fed up the femoral vein to the upper sutures (near the renal veins). At this point, inject the compound via the isolated right jugular vein and wait 1 minute. At 1 minute inflate the fogarty catheter with enough saline to distend the vena cava, but still allowing the catheter to be pulled back down to the point of femoral bifurcation without bursting the vessel. This procedure was repeated 3 times. After the third passage, the catheter was removed and as quickly as possible, the femoral incision was ligated with the proximal suture and the suture which was looped around only the vena cava was ligated to stop return flow and allow thrombus growth and the timer was set for 30 minutes.
At this point, the intestines may be placed back in the body cavity, and moistened with saline if any drying has occurred, and skin kept closed with hemostat. […]

[5] = tested on: activated partial thromboplastin time; test: Increase in APTT, bolus plus infusion model; assay type: in vivo, rat; design: Infusion Dose needed to cause 2-4 fold increase in APTT: unit not given here; settings: intravenous bolus followed by infusion
[6] = tested on: platelet deposition on arterial media; test: Pig angioplasty model, ex vivo platelet deposition on arterial media; assay type: in vivo
Protocol: The study investigates the dose range required to inhibit platelet deposition on arterial media and aggregation ex vivo in the pig using a bolus and infusion regimen of the compounds of the invention. The study was carried out according to Lam, J. Y. T. et al., Circulation 84:2, August 1991, 814-820. A brief outline of the protocol follows.
Normal 3-4 month old pigs were used. In all pigs, autologous platelets were labeled with 300-400 μCi ^111 In-tropolone 18-24 hours before angioplasty. The pigs were sedated with 300 mg i.m. ketamine. After inhalation of the ether, the pigs were intubated, mechanically ventilated with room air by a respirator and maintained anesthetized with 0.5% halothane. Immediately after catheter insertion, a single bolus of heparin was administered to animals receiving platelet-inhibitor therapy and their matching controls corresponding to a dose less than 3.1 units/kg/min. Heparin was not administered to animals receiving hirudin or their matching controls.
An 8F balloon dilation catheter was advanced under fluoroscopic control through a right femoral cut down into the left and right common carotid arterial segment between the fifth and fourth vertebrae. Five inflations were performed, 30 seconds each at 6 atm with 60 seconds between inflations. The angiographic lumen diameter before dilation ranged from 5 to 6 mm during dilation, the diameter of the inflated balloon within the artery was not more than 10% greater than the original arterial lumen. […]
The platelet deposition on each dilated artery was calculated from the platelet counts and ^111 In activity on the arterial wall and in the blood obtained. The percentage of radioactivity bound to platelets was determined and the number of platelets per counts per minute was calculated from known blood platelet counts. The number of platelets deposited on the arterial segments per square centimeter was calculated by dividing the arterial segment counts per minute by both the number of platelets per counts per minute and the arterial surface area.

Substance | IC50 (platelets) [nM] | IC50 (thrombin [1]) [nM] | Ki (thrombin [2]) [nM] | IC50 (human plasma clotting) [nM] | Dose to double patency time [3] [mg/kg] | Dose needed to achieve patency [4] | Bolus needed to achieve the same increase in APTT [5] [U] | Infusion needed to achieve the same increase in APTT [5] [U/kg/min] | Dose needed to cause a doubling in patency time [3] [U/kg] | Minimum Bolus dose needed to achieve patency [4] [mg/kg] | Decrease of platelet deposition on arterial media relative to baseline control, mean ([6]; four animals) [%] | Platelet deposition after drug infusion, X±SEM ([6]; i.v. bolus 0.2 mg/kg then infusion 0.2 mg/kg/hr, four animals, paired T P=0.0001) | Platelet deposition after drug infusion, single animals ([6]; i.v. bolus 0.2 mg/kg then infusion 0.2 mg/kg/hr, mean of three determinations per animal, animals 1-4, listed as BCH-1710) | Bolus Dose needed to cause 2-4 fold increase in APTT [5] [mg/kg] | Infusion Dose needed to cause 2-4 fold increase in APTT [5]
(D-Phe)-Pro-Arg-(CH2)4 (CO)--[NH(CH2)4 (CO)]2 -DF-(4-thiahomoGlu)-PIPL-TFA salt [BCH-2758] | 10 | 4.9 | 0.95 | 30 | 4 |  |  |  |  |  |  |  |  |  | 
heparin [reference compound] |  |  |  |  |  | 10-15 U | 25 | 0.5 | 200 |  |  |  |  |  | 
Hirulog: comparator thrombin inhibitor, BCH number 1724 |  |  |  |  |  |  |  |  |  | 0.05 to 0.125 |  |  |  |  | 
Ac(D-Phe)-Pro-Arg-(CH2)4 (CO)--[NH--CH2 --CH=CH--CH2 --(CO)]2 -DFEPIPL-OH (Ac-[dF]PR[(CH2)4CO][NHCH2CH:CHCH2CO][NHCH2CH:CHCH2CO]DFEPIPL-OH; numbers in words are those of the source; also: Arg carbonyl bonded to (CH2)4 (non-amide backbone link)) [P184] | 6 | 10.5 | 1.5 | 52 | 1 to 2 |  |  |  |  | 0.5 to 2 | 61.2 | 39.8±12.7 % of control | 31.9 % of control and 23.7 % of control and 3.7 % of control and 84.3 % of control | 1 | 125
